Source: US20030220252A1, “Method for treating a patient with neoplasia by treatment with a gonadotropin releasing hormone analog” (priority 1998, published 2003)

Columns and labels:
cGMP-PDE = cGMP-PDE inhibition assay, enzyme purified from HT-29 tumor cells; format: biochemical, human; conditions: for % Inhibition at 100 μM (cGMP PDE): test compounds
[1] = test system: HT-29 human colon carcinoma cell line; test: Growth inhibition of HT-29 cells (SRB assay; trypan blue count); format: cell-based
COX = COX inhibition; format: biochemical; conditions: 100 μM
[2] = test system: PDE peak B (novel cGMP-specific PDE); test: cGMP hydrolysis by PDE peak B isolated from SW-480 cells; format: biochemical, human
PDE peak A (PDE5) = biological target: T1, PDE peak A (PDE5) (Homo sapiens, UniProt O76074); test: cGMP hydrolysis by PDE peak A isolated from SW-480 cells; format: biochemical
T1 construct: SW-480 cells are collected and homogenized; endogenous in cells; host or cells: SW-480 human colon adenocarcinoma cells; supernatant of homogenate fractionated on DEAE-Trisacryl M

HT-29 cells = test: Apoptosis and necrosis by morphology (acridine orange/ethidium bromide) in HT-29 cells; format: cell-based, human; conditions: for apoptotic and necrotic cell death, in words: HT-29 cells treated for six days
Experimental: Treatment of cells with test compounds involves either pre- or post-confluent cultures and treatment for two to seven days at various concentrations of the compound in question. Apoptotic cells are measured by combining both the attached and “floating” compartments of the cultures. The protocol for treating tumor cell cultures with sulindac and related compounds to obtain a significant amount of apoptosis has been described in the literature. (See, Piazza, G. A., et al., Cancer Research, 55:3110-16, 1995, which is incorporated herein by reference). The novel features include collecting both floating and attached cells, identification of the optimal treatment times and dose range for observing apoptosis, and identification of optimal cell culture conditions.
Following treatment with a test compound, cultures can be assayed for apoptosis and necrosis by fluorescent microscopy following labeling with acridine orange and ethidium bromide. The method for measuring apoptotic cell number has previously been described by Duke & Cohen, “Morphological And Biochemical Assays Of Apoptosis,” Current Protocols In Immunology, Coligan et al., eds., 3.17.1-3.17.16 (1992, which is incorporated herein by reference).
For example, floating and attached cells can be collected, and aliquots of cells can be centrifuged. The cell pellet can then be resuspended in media and a dye mixture containing acridine orange and ethidium bromide. The mixture can then be examined microscopically for morphological features of apoptosis.
Reference compounds and test compounds were analyzed for their cGMP-specific PDE inhibitory activity in accordance with the protocols for the assay, supra. […] Apoptotic and necrotic cell death was determined as previously described (Duke and Cohen, In: Current Protocols in Immunology, 3.17.1-3.17.16, New York, John Wiley and Sons, 1992). […]
The apoptosis inducing activity for a series of phosphodiesterase inhibitors was determined. […] Apoptosis and necrosis were determined morphologically after acridine orange and ethidium bromide labeling in accordance with the assay described, supra.

[3] = Side effects of exisulind on administration; format: in vivo; conditions: reversible
Excerpt: This effect is reversible, and liver enzymes return to normal levels when the administered dose of exisulind returns to the traditionally recommended level or when treatment is discontinued. The most serious side effects of GnRH analogs, on the other hand, are related to decreases serum levels of estrogen and testosterone.

[4] = test system: premalignant lesions in mouse mammary gland organ culture; test: Mammary gland organ culture model; format: cell-based
Experimental: For example, female BALB/c mice can be treated with a combination of estradiol and progesterone daily, in order to prime the glands to be responsive to hormones in vitro. The animals are sacrificed and thoracic mammary glands are excised aseptically and incubated for ten days in growth media supplemented with insulin, prolactin, hydrocortisone, and aldosterone. DMBA (7,12-dimethylbenz(a)anthracene) is added to medium to induce the formation of premalignant lesions. Fully developed glands are then deprived of prolactin, hydrocortisone, and aldosterone, resulting in the regression of the glands but not the premalignant lesions.
The test compound is dissolved in DMSO and added to the culture media for the duration of the culture period. At the end of the culture period, the glands are fixed in 10% formalin, stained with alum carmine, and mounted on glass slides. The extent of the area occupied by the mammary lesions can be quantitated by projecting an image of the gland onto a digitation pad. The area covered by the gland is traced on the pad and considered as 100% of the area. The space covered by each of the unregressed structures is also outlined on the digitization pad and quantitated by the computer.
The incidence of forming mammary lesions is the ratio of the glands with mammary lesions to […]. The incidence of mammary lesions in test compound treated glands is compared with that of the untreated glands.
Mammary gland organ culture experiments were performed as previously described (Mehta and Moon, Cancer Research, 46: 5832-5835, 1986). […] The data support the hypothesis that cyclooxygenase inhibition is not necessary for the anti-neoplastic properties of desired compounds.

[5] = test system: cAMP levels in HT-29 cells; test: cAMP levels in HT-29 cells by radioimmunoassay; format: cell-based, human; conditions: HT-29 cells treated 30 minutes
Excerpt: It has been observed that a compound which is useful in the practice of this invention (i.e., one that selectively induces apoptosis in neoplastic cells, but not substantially in normal cells) follows a time course consistent with cGMP-specific PDE inhibition. […] The intracellular targets of these drug actions are being studied further, but current data support the concept that the initial rise in cGMP content and the subsequent fall in cAMP content precede apoptosis in neoplastic cells exposed to test compounds useful in this invention. To determine the cyclic AMP content in cell extracts, radioimmunoassay techniques similar to those described above for cGMP are used.

[6] = test system: cGMP levels in HT-29 cells; test: cGMP levels in HT-29 cells by radioimmunoassay; format: cell-based, human; conditions: HT-29 cells treated 30 minutes

| Compound | % Inhibition at 100 μM (cGMP PDE) (cGMP-PDE) [%] | inhibition / sensitivity of the new cGMP-PDE (peak B), in words [2] | inhibition of peak A (PDE5), in words (PDE peak A (PDE5)) | further results |
| --- | --- | --- | --- | --- |
| CCN(CC)CCSC12CC(=O)OC1(C)/C(=C/c1ccc(S(C)(=O)=O)cc1)c1ccc(F)cc12 (racemic) [A, rac-threo-(E)-1-(N,N′-diethylaminoethanethio)-1-(butan-1′,4′-olido)-[3′,4′:1,2]-6-fluoro-2-methyl-3-(p-methylsulfonylbenzylidene)-indan] | <25 |  |  | Growth inhibitory activity, % Inhibition at 100 μM ([1]; 100 μM single dose): 68% |
| CC1=C(CC(=O)O)c2cc(F)ccc2/C1=C\c1ccc(Cl)cc1 [C, (Z)-5-Fluoro-2-methyl-1-(p-chlorobenzylidene)-3-acetic acid] | <25 |  |  |  |
| COc1cc(C=C2C(C)=C(CC(=O)O)c3cc(F)ccc32)cc(OC)c1OC [Compound B, (Z)-5-Fluoro-2-methyl-1-(3,4,5-trimethoxybenzylidene)-3-acetic acid] | <25 |  |  | COX inhibition, in words (COX): did not inhibit COX |
| O=C([O-])C1CCN(c2nc(NCc3ccc4c(c3)OCO4)c3cc(Cl)ccc3n2)CC1.[Na+] [Compound E4021] |  | relatively insensitive |  |  |
| COc1cc(/C=C2/C(C)=C(CC(=O)NCc3ccccc3)c3cc(F)ccc32)cc(OC)c1OC [Compound E, (Z)-5-Fluoro-2-methyl-1-(3,4,5-trimethoxybenzylidene)-3-indenylacetamide, N-benzyl] | 75 | competitively inhibit | competitively inhibit | COX inhibition, in words (COX): did not inhibit COX |
| CC1=C(CC(=O)O)c2cc(F)ccc2/C1=C\c1ccc(S(C)(=O)=O)cc1 [Exisulind, (Z)-5-fluoro-2-methyl-1-[[4-(methylsulfonyl)phenyl]methylene]indene-3-yl acetic acid] |  | inhibits both PDE5 and the new cGMP-PDE | inhibits both PDE5 and the new cGMP-PDE | apoptotic and necrotic cell death, in words (HT-29 cells): capable of causing apoptotic cell death without inducing necrosis; % Inhibition at 10 μM (cGMP PDE) (cGMP-PDE): 39%; effect at doses higher than the recommended therapeutic levels [3]: elevated levels of liver enzymes; inhibition of premalignant lesions in mammary gland organ culture, in words [4]: effectively inhibit the formation of premalignant lesions |
| CC1(C)C(=O)Nc2ccc(C3=NNC(=O)CC3)cc21 [Indolidan] |  | relatively insensitive |  |  |
| COc1ccc(C2CNC(=O)C2)cc1OC1CCCC1 (stereo not drawn) [Rolipram] |  | relatively insensitive |  | effect on levels of cAMP, in words [5]: increased cAMP levels |
| CCCc1nn(C)c2c(=O)[nH]c(-c3cc(S(=O)(=O)N4CCN(C)CC4)ccc3OCC)nc12 [Sildenafil] |  | relatively insensitive | inhibited activity of peak A |  |
| CSc1ccc(/C=C2/C(C)=C(CC(=O)O)c3cc(F)ccc32)cc1 [Sulindac sulfide] |  | competitively inhibit | competitively inhibit | apoptosis by morphological determination, in words (HT-29 cells; 120 μM, time course): increase in apoptosis; apoptotic and necrotic cell death, in words (HT-29 cells): capable of causing apoptotic cell death without inducing necrosis; % Inhibition at 10 μM (cGMP PDE) (cGMP-PDE): 97%; increase of the levels of cGMP [6]: greater than 50%; effect on levels of cAMP, in words [5]: unaffected; inhibition of premalignant lesions in mammary gland organ culture, in words [4]: inactive; growth inhibition by counting viable cells after trypan blue staining, in words ([1]; 120 μM, time course): capable of inhibiting tumor cell growth |
| CCOC(=O)C1=C[C@]2(CC)CCCN3CCc4c(n1c1ccccc41)[C@@H]32 [Vinpocetine] |  | relatively insensitive |  |  |
| CCCOc1ccccc1-c1nc2nn[nH]c2c(=O)[nH]1 [Zaprinast] |  | relatively insensitive |  |  |
| CC1=C(CC(=O)O)c2cc(F)ccc2/C1=C/c1ccc([S+](C)[O-])cc1 (stereo not drawn) [sulindac sulfoxide] |  |  |  | inhibition of premalignant lesions in mammary gland organ culture, in words [4]: effectively inhibit the formation of premalignant lesions |
